Experimental data from PMC9385959, “Mammalian derived lipocalin and secretoglobin respiratory allergens strongly bind ligands with potentially immune modulating properties” (Frontiers in Allergy, 2022).
pKi: −log10 of the molar value. Like-named read-outs stand apart in the source and are kept apart here.

How the values were obtained:
Cav p 1.0101 = Cav p 1.0101 (Cavia porcellus, UniProt A0A484HM70, S19A); assay: Competitive fluorescence-quenching assay, Cav p 1.0101; type: binding, guinea pig; conditions: for Mean fluorescence inhibition / inhibition at 50 µM: 5 μM Cav p 1.0101-1-AMA complex, 50 μM ligand, n = 2
Protocol: (§1) Fluorescence quenching assays were performed as previously described ([45]), with modifications. Fluorochromes and ligands were purchased from Sigma Aldrich (Steinheim, Germany), Carl Roth (Karlsruhe, Germany) and TCI Europe N.V. (Zwijndrecht, Belgium).
(§2) Stock solutions were prepared at a concentration of 10 mM in 100% ethanol for the fluorochromes 1-aminoanthracene (1-AMA), 8-anilino-1-naphthalensulfonic acid (1,8-ANS) and for all ligands, and in 100% methanol for n-phenyl-1-naphthylamine (1-NPN), respectively. Iron catecholate ligands (siderophores) were prepared as previously described ([46]). Fluorochrome-protein complexes were analyzed at an equimolar concentration of 5 μM in PBS with 5% ethanol in a volume of 100 μL per well in black 96-well non-binding microplates (Greiner Bio-One GmbH, Frickenhausen, Germany). Solutions containing only protein or the respective fluorescent probe in PBS with 5% ethanol served as controls. Fluorochrome-protein complexes were incubated with orbital shaking for 10 min at 500 rpm at room temperature (RT) before measurement using the fluorescence reader TECAN Infinite 200 Pro (Tecan Trading AG, Switzerland). Excitation wavelengths were fixed at 380 nm for 1-AMA and 1,8-ANS, and 337 nm for 1-NPN. Fluorescence emission spectra were recorded in 5 nm steps between 420 and 560 nm for 1-AMA and 1,8-ANS and between 380 and 500 nm for 1-NPN. The establishment of fluorescent quenching assay parameters for each allergen is explained in the results Section Fluorescence-quenching assay set up. Binding affinities were analyzed by non-linear regression in GraphPad Prism Version 9.3.1 (GraphPad Software, LLC). For the ligand competition assays, ligands were added to fluorochrome-allergen complexes with a final buffer composition of 5% ethanol in PBS in a volume of 100 μL and incubated for 30 min at 500 rpm at RT and further equilibrated for another 30 min without shaking before fluorescence measurement.
(§3) The binding affinities of non-fluorescent ligands is inferred to by their ability to compete and displace the fluorochromes bound to the allergen at a certain concentration. This leads to a measurable decrease in fluorescence intensity that will be expressed as fluorescence inhibition (Figure 6). For a given allergen, the ligand with the strongest inhibition has the highest binding affinity. […] Competitive ligand binding was analyzed by non-linear regression and inhibitory dissociation constants (Ki) were calculated.

Cav p 1.0201 = Cav p 1.0201 (Cavia porcellus, UniProt A0A484HRI4); assay: Competitive fluorescence-quenching assay, Cav p 1.0201; type: binding, guinea pig; conditions: for Mean fluorescence inhibition / inhibition at 50 µM: 5 μM Cav p 1.0201-1-AMA complex, 50 μM ligand, n = 2
Protocol: as §1, §2, §3

Ory c 2 = assay: Competitive fluorescence-quenching assay, Ory c 2; type: binding, rabbit; conditions: 5 μM Ory c 2-1-AMA complex, 50 μM ligand, n = 2
Protocol: as §1, §2, §3

Fel d 4 = target: T1, Fel d 4 (Felis catus, UniProt Q5VFH6); assay: Competitive fluorescence-quenching assay, Fel d 4; type: binding, cat; conditions: for inhibition at 100 µM: read-out: Mean fluorescence inhibition
T1 construct: polyhistidine tag (C); made in house; host or cells: E. coli Rosetta-gami 2
T1 sequence (Q5VFH6 16-186): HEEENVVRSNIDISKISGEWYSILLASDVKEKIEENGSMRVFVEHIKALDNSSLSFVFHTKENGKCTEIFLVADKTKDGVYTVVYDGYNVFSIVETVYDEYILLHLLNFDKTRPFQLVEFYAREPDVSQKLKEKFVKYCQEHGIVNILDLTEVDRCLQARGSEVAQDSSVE
Protocol: as §1, §2, §3

Can f 6 = target: T2, Can f 6 (Canis lupus familiaris, UniProt H2B3G5); assay: Competitive fluorescence-quenching assay, Can f 6; type: binding, dog; conditions: for inhibition at 100 µM: read-out: Mean fluorescence inhibition
T2 construct: polyhistidine tag (C); made in house; host or cells: E. coli Rosetta-gami 2
T2 sequence (H2B3G5 16-190): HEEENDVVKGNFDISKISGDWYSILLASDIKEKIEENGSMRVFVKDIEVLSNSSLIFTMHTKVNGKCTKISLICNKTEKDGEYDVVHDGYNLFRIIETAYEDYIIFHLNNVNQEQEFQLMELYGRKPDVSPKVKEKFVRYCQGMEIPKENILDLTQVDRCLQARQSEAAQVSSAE
Protocol: as §1, §2, §3

Ory c 3 = Ory c 3 (Oryctolagus cuniculus, UniProt Q9GK63+Q9GK67); assay: Competitive fluorescence-quenching assay, Ory c 3; type: binding, rabbit; conditions: for inhibition at 50 µM / Mean fluorescence inhibition: 5 μM Ory c 3-1-AMA complex, 50 μM ligand, n = 2; for inhibition at 50 µM: read-out: Mean fluorescence inhibition
Protocol: as §1, §2, §3

Fel d 1 = target: T3, Fel d 1 (Felis catus, UniProt P30438+P30440); assay: Competitive fluorescence-quenching assay, Fel d 1; type: binding, cat
T3 construct: polyhistidine tag (C); made in house; host or cells: E. coli Rosetta-gami 2
T3 sequence (P30438+P30440 with tags, fused parts or gaps): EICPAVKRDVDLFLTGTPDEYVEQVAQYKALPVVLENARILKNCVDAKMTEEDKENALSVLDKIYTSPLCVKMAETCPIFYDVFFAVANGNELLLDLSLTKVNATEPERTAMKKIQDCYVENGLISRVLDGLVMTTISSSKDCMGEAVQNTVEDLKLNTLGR
Protocol: as §1, §2, §3

Can f 1 = target: T4, Can f 1 (Canis lupus familiaris, UniProt O18873); assay: Competitive fluorescence-quenching assay, Can f 1; type: binding, dog; conditions: 5 μM Can f 1-1,8-ANS complex, 50 μM ligand, n = 2; read-out: Mean fluorescence inhibition
T4 construct: made in house; host or cells: E. coli Rosetta-gami 2(DE3)
Protocol: as §1, §2, §3

human LCN1 = target: T5, human LCN1 (Homo sapiens, UniProt P31025); assay: Competitive fluorescence-quenching assay, LCN1; type: binding; conditions: 5 μM LCN1-1,8-ANS complex, 50 μM ligand, n = 2
T5 construct: made in house; host or cells: E. coli Rosetta-gami 2(DE3)
Protocol: as §1, §2, §3

[1] = 5 μM Fel d 4-1-NPN complex, 100 μM ligand
[2] = 5 μM Can f 6-1-NPN complex, 100 μM ligand, high standard error
[3] = 5 μM Fel d 1 + 1,8-ANS complex, 100 μM ligand, read-out: Mean fluorescence inhibition
[4] = 5 μM Fel d 1 + 1,8-ANS complex, 100 μM ligand

`CCCCCCCCCCCCCCCO` [Pentadecanol, pentadecanol] was tested, and the Mean fluorescence inhibition (Cav p 1.0101) was 51.3%, the Mean fluorescence inhibition (Cav p 1.0201) was 94.5% and the Mean fluorescence inhibition (Ory c 2) was 20.8%.

`CC(C)c1ccccc1O` [2-Isopropylphenol, 2-isopropylphenol] gave a pKi (Fel d 4; 5 μM Fel d 4, fluorochrome 1-NPN, to be interpreted with caution, imprecise Ki values, read-out: Ligand inhibition constant Ki) of 4.70, an inhibition at 100 µM (Fel d 4; [1]) of 99.5% and an inhibition at 100 µM (Can f 6; [2]) of 105%.

For `CC(C)=CCCC(C)=CC#N` [Geranyl nitrile, geranyl nitrile], the Mean fluorescence inhibition (Cav p 1.0101) was 57.4%, the Mean fluorescence inhibition (Cav p 1.0201) was 89.1% and the Mean fluorescence inhibition (Ory c 2) was 91.2%.

In the case of `CCCCCCCCO` [Caprylic alcohol, 1-octanol], the inhibition at 50 µM (Cav p 1.0101) was 86.7%, the inhibition at 50 µM (Cav p 1.0201) was 82.1% and the Mean fluorescence inhibition (Ory c 2) was 65.3%. For the same molecule, the inhibition at 50 µM (Ory c 3) was 68.8%, the inhibition at 100 µM (Fel d 1; [3]) was 56.5% and the inhibition at 100 µM (Fel d 1; 5 μM Fel d 1 + 1-NPN complex, 100 μM ligand, read-out: Mean fluorescence inhibition) was 49.2%.

In the case of `CC(C)CCC[C@@H](C)[C@H]1CC[C@H]2[C@@H]3CC=C4C[C@@H](O)CC[C@]4(C)[C@H]3CC[C@]12C` [cholesterol], the Mean fluorescence inhibition (Cav p 1.0101) was “not observed” and the Mean fluorescence inhibition (Cav p 1.0201) was “not observed”.

Work on `CCCCCCCCCCO` [1-Decanol, 1-decanol] yielded an inhibition at 50 µM (Cav p 1.0101) of 99%, a pKi (Cav p 1.0101; Ligand inhibition constant Ki, 5 μM Cav p 1.0101, fluorochrome 1-AMA) of 6.10 and a pKi (Cav p 1.0201) of 5.96. The inhibition at 50 µM (Cav p 1.0201) was 98.2%, the Mean fluorescence inhibition (Ory c 2) was 75.1% and the pKi (Ory c 3) was 6.15. It also gave an inhibition at 50 µM (Ory c 3) of 98% and an inhibition at 100 µM (Fel d 1; read-out: Mean fluorescence inhibition, 5 μM Fel d 1 + 1,8-ANS complex, 100 μM ligand) of 68.4%.

Molecule `CCCCCCCCCCCCCCO` [Tetradecanol, tetradecanol] has a Mean fluorescence inhibition (Cav p 1.0101) of 82.4%, a Mean fluorescence inhibition (Cav p 1.0201) of 97.9% and a Mean fluorescence inhibition (Ory c 2) of 55.4%. The Mean fluorescence inhibition (Ory c 3) was 92.9% and the Mean fluorescence inhibition (Fel d 1; [4]) was 0.0%.

`CC(C)c1cccc(O)c1` [3-Isopropylphenol, 3-ilsopropylphenole] was tested, and the inhibition at 50 µM (Cav p 1.0101) was 55.3%, the inhibition at 50 µM (Cav p 1.0201) was 75.7% and the Mean fluorescence inhibition (Ory c 2) was 89.5%. It also gave an inhibition at 100 µM (Fel d 4; [1]) of 89.5% and an inhibition at 100 µM (Can f 6; [2]) of 107%.

With `CCCCCCCCCCCCO` [1-Dodecanol, 1-dodecanol] the inhibition at 50 µM (Cav p 1.0101) was 98.9%, the inhibition at 50 µM (Cav p 1.0201) was 97% and the Mean fluorescence inhibition (Ory c 2) was 84.6%. It also gave an inhibition at 50 µM (Ory c 3) of 95.6% and an inhibition at 100 µM (Fel d 1; [3]) of 44.2%.

In the case of `CC1=C(/C=C/C(C)=C/C=C/C(C)=C/CO)C(C)(C)CCC1` [Retinol, retinol], the inhibition at 50 µM (Can f 1) was 49% and the inhibition at 50 µM (human LCN1) was 84.3%.

Molecule `CCCCCCCCN` [Octanamine, octanamine] has a Mean fluorescence inhibition (Ory c 3) of 54.7%, a Mean fluorescence inhibition (Fel d 1; [4]) of 37.7% and a Mean fluorescence inhibition (Fel d 1; 5 μM Fel d 1 + 1-NPN complex, 100 μM ligand) of 81.1%. For the same molecule, the Mean fluorescence inhibition (Fel d 4; [1]) was 94.9%, the pKi (Can f 6; 5 μM Can f 6, fluorochrome 1-NPN, to be interpreted with caution, imprecise Ki values, read-out: Ligand inhibition constant Ki) was 3.56 and the Mean fluorescence inhibition (Can f 6; [2]) was 148.7%.
